# Test system: HBsAg
# Assay: HBsAg assay (chemiluminescence immunoassay of secreted HBsAg in HepG2.2.15 culture supernatant)
# Type: cell-based, HBV
# Settings: HBsAg secretion reduced by 50% vs no drug control; HepG2.2.15 cells; CLIA kit
# Method in brief: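 HepG2.2.15 cells, which constitutively express HBV, were seeded in duplicate and treated with three-fold serial compound dilutions at 1% DMSO final. Secreted HBsAg in culture supernatant was measured semi-quantitatively by chemiluminescence immunoassay. IC50 was extrapolated from dose-response curves.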
row,SMILES,IC50 [nM]
1,"COc1cc2c(cc1OC)-c1cc(=O)c(C(=O)O)cn1C(C(C)C)C2 (stereo not shown) [Example 98, 6-isopropyl-9,10-dimethoxy-2-oxo-6,7-dihydrobenzo[a]quinolizine-3-carboxylic acid]",16
2,"COc1cc2c(cc1OC)-c1cc(=O)c(C(=O)O)cn1C(CC(C)C)C2 (stereo not shown) [Example 101, 6-isobutyl-9,10-dimethoxy-2-oxo-6,7-dihydrobenzo[a]quinolizine-3-carboxylic acid]",45
3,"COCCOc1cc2c(cc1Cl)-c1cc(=O)c(C(=O)O)cn1C(CC(C)C)C2 (stereo not shown) [Example 104, 10-chloro-6-isobutyl-9-(2-methoxyethoxy)-2-oxo-6,7-dihydrobenzo[a]quinolizine-3-carboxylic acid]",18
4,"COCCOc1cc2c(cc1Cl)-c1cc(=O)c(C(=O)O)cn1C(C(C)C)C2 (stereo not shown) [Example 107, 10-chloro-6-isopropyl-9-(2-methoxyethoxy)-2-oxo-6,7-dihydrobenzo[a]quinolizine-3-carboxylic acid]",12
5,"CCC1Cc2cc(OCc3ccccc3)c(C)cc2-c2cc(=O)c(C(=O)O)cn21 (stereo not shown) [Example 115, 9-benzyloxy-6-ethyl-10-methyl-2-oxo-6,7-dihydrobenzo[a]quinolizine-3-carboxylic acid]",29
6,"COCCCOc1cc2c(cc1Cl)-c1cc(=O)c(C(=O)O)cn1C(C(C)C)C2 (stereo not shown) [Example 120, 10-chloro-6-isopropyl-9-(3-methoxypropoxy)-2-oxo-6,7-dihydrobenzo[a]quinolizine-3-carboxylic acid]",2
7,"COc1cc2c(cc1OCC(F)(F)F)CC(C(C)C)n1cc(C(=O)O)c(=O)cc1-2 (stereo not shown) [Example 126, 6-isopropyl-10-methoxy-2-oxo-9-(2,2,2-trifluoroethoxy)-6,7-dihydrobenzo[a]quinolizine-3-carboxylic acid]",8

# Same assay, conditions: Hepatitis B virus, HepG2.2.15, HBsAg secretion reduced by 50% vs no drug control; HepG2.2.15 cells; CLIA kit
row,SMILES,IC50 [nM]
1,"CCOc1ccc(Br)c2c1-c1cc(=O)c(C(=O)O)cn1C(CC)C2 (stereo not shown) [Example 94, 8-bromo-11-ethoxy-6-ethyl-2-oxo-6,7-dihydrobenzo[a]quinolizine-3-carboxylic acid]",410
2,"CCOc1ccc(C#N)c2c1-c1cc(=O)c(C(=O)O)cn1C(CC)C2 (stereo not shown) [Example 95, 8-cyano-11-ethoxy-6-ethyl-2-oxo-6,7-dihydrobenzo[a]quinolizine-3-carboxylic acid]",7830
3,"CCCC1Cc2cc(OC)c(OC)cc2-c2cc(=O)c(C(=O)O)cn21 (stereo not shown) [Example 96, 9,10-dimethoxy-2-oxo-6-propyl-6,7-dihydrobenzo[a]quinolizine-3-carboxylic acid]",49
4,"COc1cc2c(cc1OC)-c1cc(=O)c(C(=O)O)cn1C(C1CC1)C2 (stereo not shown) [Example 97, 6-cyclopropyl-9,10-dimethoxy-2-oxo-6,7-dihydrobenzo[a]quinolizine-3-carboxylic acid]",70
5,"COCCOc1cc2c(cc1F)-c1cc(=O)c(C(=O)O)cn1C(C(C)C)C2 (stereo not shown) [Example 110, 10-fluoro-6-isopropyl-9-(2-methoxyethoxy)-2-oxo-6,7-dihydrobenzo[a]quinolizine-3-carboxylic acid]",52
6,"COCCOc1cc(Cl)c2c(c1)CC(C(C)C)n1cc(C(=O)O)c(=O)cc1-2 (stereo not shown) [Example 111, 11-chloro-6-isopropyl-9-(2-methoxyethoxy)-2-oxo-6,7-dihydrobenzo[a]quinolizine-3-carboxylic acid]",40
7,"CCC1Cc2cc(C)c(C)cc2-c2cc(=O)c(C(=O)O)cn21 (stereo not shown) [Example 112, 6-ethyl-9,10-dimethyl-2-oxo-6,7-dihydrobenzo[a]quinolizine-3-carboxylic acid]",140
8,"CCC1Cc2c(ccc(C)c2C)-c2cc(=O)c(C(=O)O)cn21 (stereo not shown) [Example 113, 6-ethyl-8,9-dimethyl-2-oxo-6,7-dihydrobenzo[a]quinolizine-3-carboxylic acid]",640
9,"COc1cc2c(cc1OC)-c1cc(=O)c(C(=O)O)cn1C(C(F)(F)F)C2 (stereo not shown) [Example 114, 9,10-dimethoxy-2-oxo-6-(trifluoromethyl)-6,7-dihydrobenzo[a]quinolizine-3-carboxylic acid]",150

# Source: patent publication US9458153B2, “Dihydroquinolizinones for the treatment and prophylaxis of hepatitis B virus infection” (Hoffmann-La Roche Inc., priority 2014, dated 2016)
